Where two headings read alike, the source gives them in different places.
Key:
[1] = tested on: PC3 prostate cancer cell line; assay: Anti-proliferative activity versus PC3 cells in MTS assay; format: cell-based
PC3 cells = details: cited from earlier work

| SMILES | IC50 ([1]; read-out: IC50, viability in prostate cancer cell line PC3, MTS assay, triplicate) [µM] | effect on PC3 cells (PC3 cells) | IC50 ([1]; Homo sapiens, PC-3, read-out: IC50, viability in prostate cancer cell line PC3) [µM] |
| --- | --- | --- | --- |
| CC1CCN(CC[C@H]2CCCN2S(=O)(=O)c2cccc(O)c2)CC1 [SB-269970] | 52.1 ± 6.5 | inhibited proliferation and induced apoptosis in PC3 cells |  |
| COc1cccc2c1C(=O)c1c(O)c3c(c(O)c1C2=O)C[C@@](O)(C(=O)CO)C[C@@H]3O[C@H]1C[C@H](N)[C@H](O)[C@H](C)O1 [Doxorubicin] |  |  | 2.8 ± 0.8 |
